Consider one substance from patent US20250204515A1, “Heparanase Inhibition for Graft Protection” (University of Pittsburgh - Of the Commonwealth System of …, priority 2022, published 2025).

The test system of data set [1] is human lung microvascular endothelial cells (HLMVECs). The data set is described as follows: In-vitro cellular toxicity test for HPSE inhibitor candidates. As to the method: In-vitro cellular toxicity test for HPSE Inhibitor candidates: Human lung microvascular endothelial cells (HLMVECs) were obtained from the American Type Culture Collection (Rockville, MD, USA). Cells were cultured in a humidified incubator at 37° C. and 5% CO2 and grown in endothelial growth medium (EGM™-2 Endothelial Cell Growth Medium-2, Lonza, Basel, Switzerland) supplemented with 2% heat-inactivated fetal bovine serum and 0.04% hydrocortisone. Cell media was replaced every 48 hours, and the cells were split upon 80-90% confluence.
Final tested concentrations of HPSE inhibitors were calculated based upon repeatable in vitro dose-response studies. After 24 hours incubation, cell viability was confirmed by Trypan blue exclusion assay. Total mRNA was isolated using Trizol (Thermo Fisher Scientific Inc., Waltham, MA) and relative messenger RNA (mRNA) expression levels of hemeoxygenase-1 (HO-1), interleukin (IL)-6, tumor necrosis factor (TNF)-α, monocyte chemoattractant protein (MCP)-1, B-cell lymphoma 2 Associated X (Bax), B-cell lymphoma 2 (Bcl-2), B-cell lymphoma-extra-large (Bcl-xL) were quantified by SYBR Green 2-step, real-time, reverse transcription-polymerase chain reaction (RT-PCR). Relative gene expression levels were normalized to mRNA expression of glyceraldehyde-3-phosphate dehydrogenase (GAPDH) and compared to relative mRNA expression levels in control-treated HLMVEC.

Data set [2] relates to HPSE1, MMP2, IL-6, IL-1β, TNF-α mRNA; IκB-α. The data set is described as follows: Real-time RT-PCR and western blotting in rat lung tissue after 4 hours of EVLP. As to the method: (§1) Graft tissues collected after 4 hours of EVLP and 2 hours after reperfusion were examined for relative mRNA expression levels of interleukin (IL)-6, IL-1, tumor necrosis factor (TNF)-α, and glyceraldehyde-3-phosphate dehydrogenase (GAPDH). Gene expression levels were normalized to GAPDH mRNA levels.
Western blotting: Total isolated proteins were extracted/resolved by 10% SDS-PAGE followed by transfer to 0.2 μm nitrocellulose membranes (Bio-Rad Laboratories, Hercules, CA, USA). Membranes were blocked with 5% non-fat milk at room temperature for 2 hours and then incubated overnight at 4° C. with the following primary antibodies: inhibitor of KB-α (IκB-α; #9242, Cell Signaling Technology, Inc., Danvers, MA) and β-actin (#A1978, Millipore-Sigma). Membranes were then incubated with either goat anti-mouse IgG (H+L) (#31430, Thermo Fisher Scientific Inc.; 1:5000) or goat anti-rabbit IgG (H+L) (#31460, Thermo Fisher Scientific Inc.; 1:3000) horseradish peroxidase-conjugated polyclonal secondary antibodies at room temperature for 2 hours. Proteins were visualized using an enhanced chemiluminescence kit (Abcam), and protein bands were imaged and analyzed using Image Lab software (Version 6.0; Bio-Rad Laboratories, Inc., Hercules, CA). The intensities of protein bands were quantitated by Image J software (National Institutes of Health, Bethesda, MD).

Data set [3] deals with rat lung grafts. The data set is described as follows: Rat orthotopic left lung transplantation following EVLP. In kind it is in vivo. To be noted: 2 hours after transplant following 4 hours of EVLP. As to the method: Rat orthotopic left lung transplantation following EVLP: Orthotopic, single-lung transplantation of the left lung was performed using the 3-cuff method. After EVLP for 4 hours, the lungs were cooled with 4° C. Perfadex on the EVLP system and stored at 4° C. for 1 hour prior to transplantation. The recipient animals were sacrificed 2 hours after reperfusion. When analyzing graft function, the native lung was clamped, 100% 02 was administered for 5 minutes through a ventilator, and the recipient's blood was sampled from the graft pulmonary vein for blood gas analysis.
as §1
Tissue staining and histopathological analysis: Formalin-fixed, paraffin-embedded lung tissues collected 2 hours after transplantation were sectioned to 4 μm thickness and stained with hematoxylin and eosin. In parallel, sections of tissue collected after 4 hours of EVLP were stained for immunofluorescence imaging using primary antibodies for syndecan-1 (DL-101) (#sc-12765, Santa Cruz) and caveolin-1 (#3238, Cell Signaling Technology, Danvers, MA) and with Hoechst 33342 dye (Thermo Scientific). Donkey Cy3-conjugated anti-mouse IgG (#AP192C, MilliporeSigma, Burlington, MA) and Cy5-conjugated goat anti-rabbit IgG (#A10523, Thermo Scientific) secondary antibodies were used to detect primary antibodies. Stained slides were scanned with a whole-slide image scanner (Axio Scan.Z1; Carl Zeiss AB, Oberkochen, Germany) and analyzed with digital image processing software (ZEN lite blue edition; Carl Zeiss).

Data set [4] relates to rat lungs. The data set is described as follows: Rat EVLP for 4 hours with HPSE inhibitors in the perfusate: physiology, endothelial barrier, edema. Particulars: heparin 1000-U/hour or SF4 1 μM in perfusate.
Method: In the heparin group, 1000-U of heparin were initially added to the EVLP perfusate, then 1000-U of heparin were administered every hour during EVLP. […] Two control conditions were included in the experimental protocol: 1) sham controls (Sham) were lungs not placed on EVLP and 2) untreated controls (Control) were lungs placed on EVLP without HPSE inhibitor treatment. EVLP physiology, endothelial integrity, inflammation and glycocalyx preservation for EVLP lungs and post-transplant lung grafts were investigated across all treatment regimens.
Ex vivo lung perfusion in rats: EVLP was performed using a commercially-available rodent EVLP system (IL-2 Isolated Perfused Rat or Guinea Pig Lung System; Harvard apparatus, Holliston, MA). Acellular Steen solution was used for EVLP perfusate and medicated with methylprednisolone (Solu-Medrol®; Pfizer, Inc., New York, NY) and cephalosporin (Cefazolin; WG critical care LLC, Paramus, NJ) equally in all experimental groups. […] Pulmonary artery pressure, peak airway pressure, and airway flow were monitored continuously, and dynamic lung compliance (Cdyn) and pulmonary vascular resistance (PVR) were analyzed.
Evaluation of endothellal barrier Integrity After 4 hours of EVLP, 60 mg of Evans blue dye (EBD, Millipore-Sigma, Burlington, MA) was administered into the perfusate to assess vascular endothelial permeability. After 30 minutes of perfusion, the lung vascular bed was rinsed with 20 ml of phosphate-buffered saline (PBS), and slices of lungs were incubated in formamide (Millipore Sigma) overnight at 60° C. Absorbance of the extractant was measured at 620 nm, and EBD was normalized to dry-tissue weight.
Wet-to-Dry (W/D) weight ratio: Lung tissues collected 2 hours after transplant were immediately weighed then placed in a 60° C. oven to dry for 72 hours. Tissues were weighed again after drying to determine the wet-to-dry lung weight ratio.

For heparin, the “toxicity against HLMVECs (endothelial cell cultures)” value in data set [1] is “safe”. Besides, in data set [2] (lung tissue after 4-hours EVLP), the “IL-1β mRNA expression” value is recorded as “increased”, the “IL-6 mRNA expression” value is given as “increased” and the “TNF-α mRNA expression” value is “increased”. The pro-MMP2 gene expression result in data set [2] (lung tissue after 4 hours of EVLP) was “further upregulated”. The “HPSE1 mRNA expression” value in data set [2] (lung tissue after 4 hours of EVLP, vs sham) is recorded as “not altered”. Also, in data set [3], the “H&E histology of grafts” value is “swollen alveolar walls, congestion in the blood vessels, and fluid leaks into the alveolar space”; the “post-transplant lung function (P/F ratio)” value is reported as “significantly lower”. For the same substance, the “pulmonary vascular resistance (PVR) during EVLP” value in data set [4] (4-hour EVLP) is given as “increased”. In addition, the “dynamic lung compliance (Cdyn) during EVLP” value in data set [4] (4-hour EVLP, vs control) is listed as “neither heparin nor SF4 altered Cdyn”. In data set [4] (after 4-hours EVLP), the “Evans blue dye (EBD) accumulation in lung tissue” value is listed as “significantly more EBD had accumulated”. The “wet-to-dry (W/D) ratio” value in data set [4] (after 4 hours of EVLP) is “further augmented”.
